Measured values taken from patent US20070128217A1 (priority 2003, published 2007).

What was measured:
[1] = tested on: antibodies in sera from SARS patients (sera 1a, 1b, 2, 6, 37, 62, London, SARS-yellow, SARS-green); assay type: binding, human; design: Binding of serum 6 to linear peptides of protein X1 of SARS-CoV Urbani / Binding of serum 37 to linear peptides of protein X1 of SARS-CoV Urbani / Binding of serum 6 to looped/cyclic peptide (PEPSCAN-ELISA) / Binding of serum 37 to looped/cyclic peptide (PEPSCAN-ELISA) / Binding of serum 37 to looped/cyclic peptides of protein X1 of SARS-CoV Urbani / Binding of serum 6 to linear peptides of protein X2 / Binding of serum 37 to linear peptides of protein X2 / Binding of serum 37 to looped/cyclic peptides of protein X2 of SARS-CoV Urbani / Binding of serum 6 to linear peptides of protein M of SARS-CoV Urbani / Binding of serum 37 to linear peptides of protein M of SARS-CoV Urbani / Binding of serum 6 to looped/cyclic peptides of protein M of SARS-CoV Urbani / Binding of serum 37 to looped/cyclic peptides of protein M of SARS-CoV Urbani / Binding of serum 6 to linear peptides of protein X3 of SARS-CoV Urbani / Binding of serum 37 to linear peptides of protein X3 of SARS-CoV Urbani / Binding of serum 37 to looped/cyclic peptides of protein X3 of SARS-CoV Urbani / Binding of serum 6 to linear peptides of protein X4 of SARS-CoV Urbani / Binding of serum 37 to linear peptides of protein X4 of SARS-CoV Urbani / Binding of serum 37 to looped/cyclic peptides of protein X4 of SARS-CoV Urbani / Binding of serum 6 to linear peptides of protein X5 of SARS-CoV Urbani / Binding of serum 37 to linear peptides of protein X5 of SARS-CoV Urbani / Binding of serum 37 to looped/cyclic peptides of protein X5 of SARS-CoV Urbani / Binding of serum 6 to linear peptides of protein N of SARS-CoV Urbani / Binding of serum 37 to linear peptides of protein N of SARS-CoV Urbani / Binding of serum 6 to linear peptide (PEPSCAN-ELISA) / Binding of serum 1a to looped/cyclic peptides of protein N of SARS-CoV Urbani / Binding of serum 1b to looped/cyclic peptides of protein N of SARS-CoV Urbani / Binding of serum 2 to looped/cyclic peptides of protein N of SARS-CoV Urbani / Binding of serum 6 to looped/cyclic peptides of protein N of SARS-CoV Urbani / Binding of serum 37 to looped/cyclic peptides of protein N of SARS-CoV Urbani / Binding of serum 62 to looped/cyclic peptides of protein N of SARS-CoV Urbani / Binding of serum London to looped/cyclic peptides of protein N of SARS-CoV Urbani / Binding of serum SARS-green to looped/cyclic peptides of protein N of SARS-CoV Urbani: unit not given here
[2] = tested on: control sera (pooled serum of ten healthy LUMC hospital workers; commercial negative donor pooled serum from the Dutch bloodbank); assay type: binding, human; design: Binding of Control serum LUMC to linear peptides / Binding of Control serum Blood-bank to linear peptides / Binding of Control serum LUMC to looped peptides / Binding of Control Serum Blood-Bank to Looped peptides / Binding of Control serum LUMC to linear peptides of the protein M of SARS-CoV Urbani / Binding of Control serum Blood-bank to linear peptides of the protein M of SARS-CoV Urbani / Binding of Control serum LUMC to looped peptides of the protein M of SARS-CoV Urbani / Binding of Control Serum Blood-Bank to Looped peptides of the protein M of SARS-CoV Urbani: unit not given here
[3] = tested on: rabbit serum obtained by immunizing a rabbit with the SARS-CoV strain Frankfurt 1; assay type: binding; design: Binding of a rabbit serum to linear peptides / Binding of a rabbit serum to looped peptides / Rabbit serum linear peptides / Rabbit serum looped peptides / Binding of a rabbit serum to linear peptides of protein N of SARS-CoV Urbani (Rabbit serum linear peptides) / Binding of a rabbit serum to looped/cyclic peptides of protein N of SARS-CoV Urbani (Rabbit serum looped peptides): unit not given here

## AISPKFTTSLSLHKL
[1]
  Binding of serum 1a to linear peptides of protein X2: 0.6
  Binding of serum 1a to looped/cyclic peptides of protein X2 of SARS-CoV Urbani: 0.6
  Binding of serum 1b to linear peptides of protein X2: 0.5
  Binding of serum 1b to looped/cyclic peptides of protein X2 of SARS-CoV Urbani: 0.6
  Binding of serum 2 to linear peptides of protein X2: 0.5
  Binding of serum 2 to looped/cyclic peptides of protein X2 of SARS-CoV Urbani: 0.4
  Binding of serum 6 to linear peptides of protein X2: 0.6
  Binding of serum 6 to looped/cyclic peptides of protein X2 of SARS-CoV Urbani: 0.8
  Binding of serum 37 to linear peptides of protein X2: 0.6
  Binding of serum 37 to looped/cyclic peptides of protein X2 of SARS-CoV Urbani: 0.5
  Binding of serum 62 to linear peptides of protein X2: 0.6
  Binding of serum 62 to looped/cyclic peptides of protein X2 of SARS-CoV Urbani: 0.7
  Binding of serum London to linear peptides of protein X2: 0.5
  Binding of serum London to looped/cyclic peptides of protein X2 of SARS-CoV Urbani: 1.1
  Binding of serum SARS-green to linear peptides of protein X2: 0.4
  Binding of serum SARS-green to looped/cyclic peptides of protein X2 of SARS-CoV Urbani: 0.3
  Binding of serum SARS-yellow to linear peptides of protein X2: 0.5
  Binding of serum SARS-yellow to looped/cyclic peptides of protein X2 of SARS-CoV Urbani: 0.4
[2]
  Binding of Control Serum Blood-Bank to Looped peptides: 0.8
  Binding of Control serum Blood-bank to linear peptides: 0.8
  Binding of Control serum LUMC to linear peptides: 0.6
  Binding of Control serum LUMC to looped peptides: 0.6
[3]
  Binding of a rabbit serum to linear peptides: 0.2
  Binding of a rabbit serum to looped peptides: 0.4

## FRLFARTRSMWSFNP
[1]
  Binding of serum 1a to linear peptides of protein M of SARS-CoV Urbani: 0.8
  Binding of serum 1a to looped/cyclic peptides of protein M of SARS-CoV Urbani: 0.7
  Binding of serum 1b to linear peptides of protein M of SARS-CoV Urbani: 0.5
  Binding of serum 1b to looped/cyclic peptides of protein M of SARS-CoV Urbani: 0.5
  Binding of serum 2 to linear peptides of protein M of SARS-CoV Urbani: 0.6
  Binding of serum 2 to looped/cyclic peptides of protein M of SARS-CoV Urbani: 0.6
  Binding of serum 6 to linear peptides of protein M of SARS-CoV Urbani: 0.5
  Binding of serum 6 to looped/cyclic peptides of protein M of SARS-CoV Urbani: 0.8
  Binding of serum 37 to linear peptides of protein M of SARS-CoV Urbani: 0.5
  Binding of serum 37 to looped/cyclic peptides of protein M of SARS-CoV Urbani: 0.6
  Binding of serum 62 to linear peptides of protein M of SARS-CoV Urbani: 0.5
  Binding of serum 62 to looped/cyclic peptides of protein M of SARS-CoV Urbani: 0.6
  Binding of serum London to linear peptides of protein M of SARS-CoV Urbani: 0.4
  Binding of serum London to looped/cyclic peptides of protein M of SARS-CoV Urbani: 0.3
  Binding of serum SARS-green to linear peptides of protein M of SARS-CoV Urbani: 0.6
  Binding of serum SARS-green to looped/cyclic peptides of protein M of SARS-CoV Urbani: 0.3
  Binding of serum SARS-yellow to linear peptides of protein M of SARS-CoV Urbani: 0.2
  Binding of serum SARS-yellow to looped/cyclic peptides of protein M of SARS-CoV Urbani: 0.5
[2]
  Binding of Control Serum Blood-Bank to Looped peptides of the protein M of SARS-CoV Urbani: 0.8
  Binding of Control serum Blood-bank to linear peptides of the protein M of SARS-CoV Urbani: 0.8
  Binding of Control serum LUMC to linear peptides of the protein M of SARS-CoV Urbani: 0.8
  Binding of Control serum LUMC to looped peptides of the protein M of SARS-CoV Urbani: 0.6
[3]
  Rabbit serum linear peptides: 0.2
  Rabbit serum looped peptides: 0.2

## CALGKVLPFHRWHTM
[1]
  Binding of serum 1a to linear peptides of protein X5 of SARS-CoV Urbani: 0.7
  Binding of serum 1a to looped/cyclic peptides of protein X5 of SARS-CoV Urbani: 0.4
  Binding of serum 1b to linear peptides of protein X5 of SARS-CoV Urbani: 0.5
  Binding of serum 1b to looped/cyclic peptides of protein X5 of SARS-CoV Urbani: 0.2
  Binding of serum 2 to linear peptides of protein X5 of SARS-CoV Urbani: 0.7
  Binding of serum 2 to looped/cyclic peptides of protein X5 of SARS-CoV Urbani: 0.6
  Binding of serum 6 to linear peptides of protein X5 of SARS-CoV Urbani: 0.7
  Binding of serum 6 to looped/cyclic peptides of protein X5 of SARS-CoV Urbani: 0.4
  Binding of serum 37 to linear peptides of protein X5 of SARS-CoV Urbani: 0.8
  Binding of serum 37 to looped/cyclic peptides of protein X5 of SARS-CoV Urbani: 0.5
  Binding of serum 62 to linear peptides of protein X5 of SARS-CoV Urbani: 0.7
  Binding of serum 62 to looped/cyclic peptides of protein X5 of SARS-CoV Urbani: 0.3
  Binding of serum London to linear peptides of protein X5 of SARS-CoV Urbani: 0.7
  Binding of serum London to looped/cyclic peptides of protein X5 of SARS-CoV Urbani: 0.2
  Binding of serum SARS-green to linear peptides of protein X5 of SARS-CoV Urbani: 0.7
  Binding of serum SARS-green to looped/cyclic peptides of protein X5 of SARS-CoV Urbani: 0.4
  Binding of serum SARS-yellow to linear peptides of protein X5 of SARS-CoV Urbani: 0.1
  Binding of serum SARS-yellow to looped/cyclic peptides of protein X5 of SARS-CoV Urbani: 0.4
[2]
  Binding of Control Serum Blood-Bank to Looped peptides: 0.4
  Binding of Control serum Blood-bank to linear peptides: 0.8
  Binding of Control serum LUMC to linear peptides: 0.7
  Binding of Control serum LUMC to looped peptides: 0.6
[3]
  Rabbit serum linear peptides: 0.6
  Rabbit serum looped peptides: 1.0

## LFVTIYSHLLLVAAG
[1]
  Binding of serum 1a to linear peptides of protein X1 of SARS-CoV Urbani: 0.7
  Binding of serum 1a to looped/cyclic peptide (PEPSCAN-ELISA): 0.5
  Binding of serum 1b to linear peptides of protein X1 of SARS-CoV Urbani: 0.4
  Binding of serum 1b to looped/cyclic peptide (PEPSCAN-ELISA): 0.3
  Binding of serum 2 to linear peptides of protein X1 of SARS-CoV Urbani: 0.6
  Binding of serum 2 to looped/cyclic peptide (PEPSCAN-ELISA): 0.4
  Binding of serum 6 to linear peptides of protein X1 of SARS-CoV Urbani: 0.3
  Binding of serum 6 to looped/cyclic peptide (PEPSCAN-ELISA): 0.2
  Binding of serum 37 to linear peptides of protein X1 of SARS-CoV Urbani: 0.6
  Binding of serum 37 to looped/cyclic peptide (PEPSCAN-ELISA): 0.5
  Binding of serum 62 to linear peptides of protein X1 of SARS-CoV Urbani: 0.5
  Binding of serum 62 to looped/cyclic peptide (PEPSCAN-ELISA): 0.5
  Binding of serum London to linear peptides of protein X1 of SARS-CoV Urbani: 0.2
  Binding of serum London to looped/cyclic peptide (PEPSCAN-ELISA): 0.2
  Binding of serum SARS-green to linear peptides of protein X1 of SARS-CoV Urbani: 0.2
  Binding of serum SARS-green to looped/cyclic peptide (PEPSCAN-ELISA): 0.3
  Binding of serum SARS-yellow to linear peptides of protein X1 of SARS-CoV Urbani: 0.5
  Binding of serum SARS-yellow to looped/cyclic peptide (PEPSCAN-ELISA): 0.4
[2]
  Binding of Control Serum Blood-Bank to Looped peptides: 0.6
  Binding of Control serum Blood-bank to linear peptides: 0.5
  Binding of Control serum LUMC to linear peptides: 0.4
  Binding of Control serum LUMC to looped peptides: 0.6
[3]
  Binding of a rabbit serum to linear peptides: 0.1
  Binding of a rabbit serum to looped peptides: 0.6

## PYNSVTDTIVVTEGD
[1]
  Binding of serum 1a to linear peptides of protein X1 of SARS-CoV Urbani: 0.5
  Binding of serum 1a to looped/cyclic peptides of protein X1 of SARS-CoV Urbani: 0.4
  Binding of serum 1b to linear peptides of protein X1 of SARS-CoV Urbani: 0.4
  Binding of serum 1b to looped/cyclic peptides of protein X1 of SARS-CoV Urbani: 0.3
  Binding of serum 2 to linear peptides of protein X1 of SARS-CoV Urbani: 0.4
  Binding of serum 2 to looped/cyclic peptides of protein X1 of SARS-CoV Urbani: 0.3
  Binding of serum 6 to linear peptides of protein X1 of SARS-CoV Urbani: 0.4
  Binding of serum 6 to looped/cyclic peptides of protein X1 of SARS-CoV Urbani: 0.1
  Binding of serum 37 to linear peptides of protein X1 of SARS-CoV Urbani: 0.5
  Binding of serum 37 to looped/cyclic peptides of protein X1 of SARS-CoV Urbani: 0.3
  Binding of serum 62 to linear peptides of protein X1 of SARS-CoV Urbani: 0.4
  Binding of serum 62 to looped/cyclic peptides of protein X1 of SARS-CoV Urbani: 0.3
  Binding of serum London to linear peptides of protein X1 of SARS-CoV Urbani: 0.2
  Binding of serum London to looped/cyclic peptides of protein X1 of SARS-CoV Urbani: 0.2
  Binding of serum SARS-green to linear peptides of protein X1 of SARS-CoV Urbani: 0.2
  Binding of serum SARS-green to looped/cyclic peptides of protein X1 of SARS-CoV Urbani: 0.5
  Binding of serum SARS-yellow to linear peptides of protein X1 of SARS-CoV Urbani: 0.3
  Binding of serum SARS-yellow to looped/cyclic peptides of protein X1 of SARS-CoV Urbani: 0.4
[2]
  Binding of Control Serum Blood-Bank to Looped peptides: 0.4
  Binding of Control serum Blood-bank to linear peptides: 0.4
  Binding of Control serum LUMC to linear peptides: 0.3
  Binding of Control serum LUMC to looped peptides: 0.4
[3]
  Binding of a rabbit serum to linear peptides: 0.1
  Binding of a rabbit serum to looped peptides: 0.3
